Experimental data published in patent US20120270928A1, “MICRORNA COMPOUNDS AND METHODS FOR MODULATING MIR-21 ACTIVITY” (REGULUS THERAPEUTICS INC., priority 2011, published 2012).
“And” between values parts separate entries of the source, which are not always exact repeats. Identical values can stand only once.

Columns and labels:
miR-21 = miR-21 luciferase sensor assay in Hela cells; format: cell-based; conditions: Hela cells
Protocol: The compounds were assessed for miR-21 inhibitory activity in a luciferase assay. A microRNA luciferase sensor construct was engineered using pGL3-MCS2 (Promega). The construct was introduced into Hela cells to test the ability of anti-miR compounds to inhibit activity of miR-21. In this assay, miR-21 present in the Hela cells binds to its cognate site(s) in the luciferase sensor construct, and suppresses luciferase expression. When the appropriate anti-miR is introduced into the cells, it binds to miR-21 and relieves suppression of luciferase expression. Thus, in this assay anti-miRs that are effective inhibitors of miR-21 expression will cause an increase in luciferase expression.
Hela cells (ATCC), stably transfected with a luciferase construct engineered to contain a sequence complementary of miR-21, were seeded in T-170 flasks (BD Falcon) at 3.5*10^6 cells/flask. Hela cells were grown in Dulbecco's Modified Eagle Medium with High Glucose (Invitrogen).
Each flask of Hela cells was transfected with 0.5 ug of a phRL sensor plasmid (Promega) expressing Renilla to be used in normalization. Hela cells were transfected using 20 ul Lipofectamine 2000/flask (Invitrogen). After 4 hours of transfection, cells were washed with PBS and trypsinized Hela cells were plated at 40 k/well in 24 well plates (BD Falcon) and left overnight.
Hela cells were transfected with anti-miRs using Lipofectin (Invitrogen) at 2.5 ul Lipofectin/100 nM ASO/ml Opti-MEM I Reduced Serum Medium (Invitrogen) for 4 hours. After ASO transfection, Hela cells were refed with Dulbecco's Modified Eagle Medium with High Glucose (Invitrogen).
Hela cells are passively lysed and luciferase activity measured using the Dual-Luciferase Reporter Assay System (Promega).
The luciferase assay was performed to test the ability of anti-miRs with the nucleoside patterns described herein to inhibit the activity of miR-21. Results were compared to a ‘mock’ treatment, in which cells received no anti-miR treatment. The experiment was repeated and results of two experimental replicates are shown in the following Table B, as the luciferase value normalized to beta-galactosidase activity.
The luciferase assay was performed as described herein to test the ability of anti-miRs in Table F to inhibit the activity of miR-21. Results were compared to a ‘mock’ treatment, in which cells received no anti-miR treatment. The experiment was repeated and results of two experimental replicates are shown in the following Table D, as fold change in luciferase value relative to the mock treatment.

[1] = test system: UUO model of kidney fibrosis; assay: Unilateral ureteral obstruction (UUO) model of kidney fibrosis: kidney collagen 1A1 and collagen 3A1 expression by real-time PCR; format: in vivo, mice; conditions: for Collagen 3A1 (Normalized Expression) Mean / Collagen 1A1 (Normalized Expression) Mean / Collagen 1A1 (Normalized Expression) / Collagen 3A1 (Normalized Expression): Table K, UUO mice, kidney at day 11; for Collagen 3A1 (Normalized Expression) Mean / Collagen 1A1 (Normalized Expression) Mean: group mean; for Collagen 3A1 (Normalized Expression) Mean / Collagen 1A1 (Normalized Expression) Mean / reduction in collagen expression (in words): 20 mg/kg at days -3, -1, +5; for Collagen 3A1 (Normalized Expression) Mean: UUO-PBS mean 87.2; for Collagen 1A1 (Normalized Expression) Mean: UUO-PBS mean 114.9; for Collagen 1A1 (Normalized Expression) / Collagen 3A1 (Normalized Expression): individual animals, 20 mg/kg at days -3, -1, +5 (prophylactic), real-time PCR normalized to GAPDH then sham, 20 mg/kg; for reduction in collagen expression (in words): meta-analysis of UUO studies
Protocol: Unilateral ureteral obstruction (UUO) is a well-established experimental model of renal injury leading to interstitial fibrosis, and thus is used as an experimental model that is reflective of human kidney disease. UUO is induced by surgically ligating a single ureter. As fibrosis is characterized by an increase in collagen, the presence and extent of kidney fibrosis may be determined by measuring collagen content. Both collagen 1A1 (Col 1A1) and collagen 3A1 (Col 3A1) are measured to assess collagen content. Kidney fibrosis may be visualized by staining tissue samples with picro-sirius red to detect increases in collagen content. Kidney fibrosis may also be observed by measuring the amount of hydroxyproline, which is a major component of collagen, in a sample.
The cEt-containing anti-miR-21 compounds found to be active in the luciferase assay were tested in the UUO model of kidney fibrosis. 25919 comprising 2′-MOE and 2′-fluoro modifications is known to inhibit miR-21 activity in vivo and was included as a positive control. Groups of 8 animals each were treated as follows: UUO only, UUO with PBS, or UUO with anti-miR-21 compound. Relative to the day of the UUO procedure, PBS or anti-miR-21 compound was administered at days −3, −1, and +5. Anti-miR-21 compounds were administered at a dose of 20 mg/kg. As the anti-miR compounds were administered prior to the UUO procedure, this dosing regimen is considered a prophylactic treatment. At day 11, animals were sacrificed and kidney was isolated for measurement of collagen expression. Collagen expression was measured by real-time PCR and normalized first to GAPDH and then to the sham control animals.
The UUO study was repeated to confirm the activity of 25070. The anti-miR was administered subcutaneously at a dose of 20 mg/kg.
Control treatment groups included UUO only (sham) and UUO with PBS administered subcutaneously. An additional control group included UUO with Tween-MC/20 carrier perorally. 25070 administered subcutaneously at dose of 20 mg/kg at 5 days prior to, 2 days prior to, and 3 days after, the UUO procedure. Irbesartan was administered perorally on daily on days 0 through 7 following the UUO procedure. Animals were sacrificed on Day 10 following the UUO procedure. Kidney tissue was collected for measurement of collagen 1A1 and collagen 3A1 expression.
Compounds 25220 and 25221, as well as 25923, were tested in the UUO model for their effects on fibrosis. Groups of 8 animals each were treated as follows: sham surgery, UUO with PBS, UUO with 25220, UUO with 25221, or UUO with 25923. Relative to the day of the UUO procedure, PBS or anti-miR-21 compound was administered at days −5, −3, and +3. Anti-miR-21 compounds were administered at a dose of 20 mg/kg. As the anti-miR compounds were administered prior to the UUO procedure, this dosing regimen is considered a prophylactic treatment. At day 10, animals were sacrificed and kidney was isolated for measurement of collagen expression. Collagen expression was measured by real-time PCR and normalized to GAPDH.

[2] = Ex vivo liver homogenate stability assay (HPLC-TOF MS); conditions: 24 hours at 37° C.; for ex vivo (liver) N %↓: full-length compound; for ex vivo (liver) % Endo / ex vivo (liver) % N − 1: 5 μM oligonucleotide in liver homogenate; for ex vivo (liver) % N − 1: compound lacking the 3′-terminal nucleoside
[3] = In vivo stability of compound in kidney tissue after administration to mice; conditions: kidney tissue after administration; for in vivo (kidney) N − 1 (%): compound lacking the 3′-terminal nucleoside; for in vivo (kidney) N (%): full-length compound
[4] = 500 nM oligonucleotide, two experimental replicates
[5] = 5 μM oligonucleotide in liver homogenate (50 mg tissue per ml)

Substance | luciferase value normalized to beta-galactosidase activity (miR-21; 4 nM oligonucleotide) | luciferase value normalized to beta-galactosidase activity (miR-21; 20 nM oligonucleotide) | luciferase value normalized to beta-galactosidase activity (miR-21; 100 nM oligonucleotide) | luciferase value normalized to beta-galactosidase activity (miR-21; [4]) | luciferase value normalized to beta-galactosidase activity (miR-21; .16 nM oligonucleotide) | luciferase value normalized to beta-galactosidase activity (miR-21; .8 nM oligonucleotide) | inhibition of miR-21 activity in the luciferase assay (in words) (miR-21) | Collagen 3A1 (Normalized Expression) Mean [1] | Collagen 1A1 (Normalized Expression) Mean [1] | Collagen 1A1 (Normalized Expression) [1] | Collagen 3A1 (Normalized Expression) [1] | reduction in collagen expression (in words) [1] | compound lacking the 3′-terminal nucleoside [2, 5] | compound present as the full-length compound [2, 5] | ex vivo (liver) N %↓ [2, 5] [%] | ex vivo (liver) % Endo [2] | ex vivo (liver) % N − 1 [2] [%] | in vivo (kidney) N − 1 (%) [3] [%] | in vivo (kidney) N (%) [3] [%]
AECSAETECSAEGETECSTEGEAEUSAEAEGECSTEAE (ACATCAGTCTGATAAGCTA; anti-miR; sugar and backbone modifications, code letters not given here, further chemistry not given here) [Compound 25072] | 76 | 86 | 115 | 143 | 40 | 49 | inhibition of miR-21 in a dose-dependent manner | 65.5 | 113.8 | 96.2 and 85.7 and 127.4 and 100.0 and 159.2 and 120.5 and 108.0 | 69.4 and 54.5 and 58.8 and 69.2 and 93.8 and 65.8 and 46.9 | did not consistently demonstrate a reduction in collagen expression | – | – | – | – | – | – | –
AECSATCSAGTCSTGAUSAAGCSTAS (antisense ACATCAGTCTGATAAGCTA; cEt and 2'-MOE nucleosides) [Compound 25923] | – | – | – | – | – | – | – | – | – | – | – | – | about 18% | About 68% | 17 | 2-3% | 13 | 14 ± 5 | 58 ± 3
AECSATCSAGTCSTGAUSAAGCSUsAS (ACATCAGTCTGATAAGCTA; sugar and backbone modifications) [Compound 25221] | – | – | – | – | – | – | – | – | – | – | – | – | – | – | 3 | 3% | 0 | 4 ± 1 | 76 ± 4
AECSATCSASGTCSUSGAUSASAGCSUsAE (ACATCAGTCTGATAAGCTA; sugar and backbone modifications) [Compound 25220] | – | – | – | – | – | – | – | – | – | – | – | – | – | – | 3 | 3% | 0 | 16 ± 6 | 67 ± 16
TE^MeCAACSATCSAGTCSTGAUSAAGCSTAE (TCAACATCAGTCTGATAAGCTA; modified nucleosides with 5-methyl C, code letters not given here, further chemistry not given here) [Compound 25082] | 112 | 147 | 176 | 202 | 70 | 89 | inhibition of miR-21 in a dose-dependent manner | 59.1 | 91.7 | 122.2 and 188.3 and 102.5 and 67.6 and 40.6 and 44.1 and 73.8 and 94.7 | 62.9 and 78.9 and 82.2 and 43.8 and 32.6 and 34.3 and 75.8 and 62.5 | did not consistently demonstrate a reduction in collagen expression | – | – | – | – | – | – | –
TE^MeCEAEAECSAETECSAEGETECSTEGEAEUSAEAEGECSTEAE (TCAACATCAGTCTGATAAGCTA; modified nucleosides and phosphorothioate, code letters not given here, further chemistry not given here) [Compound 25068] | 64 | 86 | 97 | 122 | 45 | 54 | inhibition of miR-21 in a dose-dependent manner | 60.6 | 96.4 | 84.7 and 75.1 and 85.5 and 89.1 and 90.4 and 125.8 and 124.4 | 64.8 and 56.2 and 47.4 and 76.2 and 57.0 and 63.0 and 59.6 | active in reducing collagen expression, but to a lesser extent than 25070 | – | – | – | – | – | – | –
